The values that follow come from patent publication US20220040349A1, “ANTIVIRAL METHODS AND COMPOSITIONS” (priority 2020, published 2022).

Data set [1] deals with E. coli. As to the kind of experiment: Killing of E. coli suspended in solution under irradiation or dark incubation (Part IV). Type of data set: cell-based. As to conditions: for killing of E. coli / killing of E. coli at longer times: 1-10 μg/mL; for killing of E. coli: five minutes of irradiation; for killing of E. coli at longer times: longer than five minutes; for activity against E. coli in suspension in the dark: dark incubation. The source says:
(§1) In the current study we have observed Compound E, Compound D, and Formula X in aqueous media with suspensions of E. coli and SARS-CoV-2 for Compound E and with suspensions of E. coli for Compound D and Formula X. We have also studied these oligomers as supported coatings on various supporting materials including wipe scaffolds, commercial Kimwipes, and proprietary materials from Diamond Wipes and HYDAC.

In a further data set the test system is E coli. As to the kind of experiment: Light-activated killing of bacteria (Example III-1). Type of data set: cell-based. The source says:
No killing of bacteria in the dark has yet been observed.

The subject of a further data set is mammal models. As to conditions: in vivo.
Data set [2] has as its system SARS-CoV-2. As to the kind of experiment: Compound E in solution: inactivation of SARS-CoV-2 under cool white light, plaque assay on Vero E6 cells. In kind it is cell-based.
Data set [3] relates to SARS-CoV-2. As to the kind of experiment: Compound E-coated glass fiber filter: inactivation of SARS-CoV-2 under cool white light, plaque assay on Vero E6 cells. Type of data set: cell-based. As to conditions: for inactivation of the virus: coated on glass fiber, cool white.
Data set [4] has as its system E. coli. As to the kind of experiment: Killing of E. coli by compound coated on wet wipe surface or filter. In kind it is cell-based.
Description: Compound E was applied to a wet wipe surface and also to the surface of a filter for filtration of air or water.
as §1

A further data set deals with bacteria. The data set can be described thus: Antibacterial activity of oligomer IX under visible light and in the dark. Type of data set: cell-based.
Data set [5] concerns SARS-CoV-2. In kind it is cell-based. As to conditions: cool white; 30 minutes irradiation (earliest point).

“Also recorded” adds a separate entry of the source.

Consider `Cn1cc[n+](CCCOc2ccc(C#Cc3ccc(C#Cc4ccc(OCCC[n+]5ccn(C)c5)cc4)cc3)cc2)c1` [Compound D], for which, in the data set on E. coli [1] (near UV), the “killing of E. coli” value is listed as approximately 99% and the “killing of E. coli at longer times” value was “complete killing”. Further, in the data set with E. coli [1], the “activity against E. coli in suspension in the dark” value is on record as “neither compound showed any killing; also recorded: not under visible light or dark conditions” and the “activity against E. coli in suspension under near-UV” value (from here on “activity … under near-UV”) is on record as “had activity”. Besides, the “activity against E. coli in suspension under visible light” value with E. coli [1] (visible light) is recorded as “not under visible light or dark conditions”. Also, in the data set on E coli, the relative reactivity entry was “more reactive than Compound E”, the “anti-bacterial activity using LuzChem cool white light” value was “excellent anti-bacterial activity”, the “killing of bacteria in the dark” value is “No killing” and the “light-activated killing of bacteria” value is reported as “excellent light-activated killing”.

Regarding `Cn1cc[n+](CCCOc2ccc(C#Cc3ccc(C#Cc4ccc(OCCC[n+]5ccn(C)c5)cc4)s3)cc2)c1` [Compound E], in the data set with E. coli [1] (visible light), the “killing of E. coli” value is approximately 99%, the “killing of E. coli at longer times” value was “complete killing” and the “activity against E. coli in suspension under visible light” value is “had activity”. Also, in the data set with E. coli [1], the “activity against E. coli in suspension in the dark” value is listed as “neither compound showed any killing; also recorded: not in dark conditions” and the “activity … under near-UV” value is on record as “had activity”. Also, in the data set with mammal models, the “toxicity against mammal models” value was “no toxicity”. The “activity against SARS-Cov-2 in suspension in the dark” value with SARS-CoV-2 [2] (dark conditions) is “not in dark conditions”. Also, in the data set with SARS-CoV-2 [2] (solution (10 μg/mL), cool white, 5 minutes of irradiation), the “inactivation of the virus” value is listed as more than 95%. For the same compound, the “inactivation at longer irradiation” value with SARS-CoV-2 [2] (solution, cool white, 10 minutes or longer) was “complete deactivation inactivation”. Also, the “activity against SARS-Cov-2 in suspension” value in the data set on SARS-CoV-2 [2] (visible light and near-UV) is recorded as “had activity”. Further, the “inactivation of the virus” value in the data set with SARS-CoV-2 [3] (10 minutes irradiation) is given as “about 90%”. Besides, in the data set on SARS-CoV-2 [3] (30 minutes), the “inactivation of the virus” value is 3 log. In addition, in the data set on SARS-CoV-2 [3] (visible light and near-UV), the “activity against SARS-Cov-2 on a filter” value was “had activity”. In the data set with E coli, the “anti-bacterial activity using LuzChem cool white light” value was “excellent anti-bacterial activity”, the “killing of bacteria in the dark” value is on record as “No killing” and the “light-activated killing of bacteria” value was “excellent light-activated killing”. Also, in the data set on E. coli [4] (applied to wet wipe surface and filter surface), the “light-activated killing of E. coli on coated surface” value is recorded as “strong light-activated killing”. The “activity against E. coli on a filter in the dark” value in the data set on E. coli [4] (dark conditions) is given as “not in dark conditions”. Besides, in the data set with E. coli [4] (surface immersed in E. coli suspension), the “activity when coated surface immersed in suspension of E. coli” value was “activity was retained”. In the data set on E. coli [4] (visible light and near-UV), the “activity against E. coli on a filter” value is recorded as “had activity”.

Take `C[N+](C)(C)CCCOc1ccc(C#Cc2ccc(C#Cc3ccc(OCCC[N+](C)(C)C)cc3)cc2)cc1` [Formula IX]: in the data set on bacteria (dark), the “activity against bacteria in the dark” value is listed as “active against bacteria in the dark”. Moreover, the “activity under visible light irradiation” value in the data set with bacteria (visible light) was “not active under visible light irradiation”.

With `C[N+](C)(C)CCCOc1ccc(C#Cc2ccc(C#Cc3ccc(OCCC[N+](C)(C)C)cc3)s2)cc1` [Formula X], in the data set with E. coli [1], the “activity against E. coli in suspension in the dark” value was “considerable dark reactivity; also recorded: had activity”; the “activity … under near-UV” value was “activity under visible light and near-UV; also recorded: had activity”. For the same compound, in the data set on E. coli [1] (visible light), the “activity against E. coli in suspension under visible light” value was “activity under visible light and near-UV; also recorded: had activity”. Besides, in the data set on SARS-CoV-2 [5], the virus present entry is “no virus present”.
